Tests used:
[1] = Shake-flask determination of maximum solubility of DIM; type: physicochemical; settings: HPLC
Method: The solubility was determined as described by Lindenberg et al., 2004, Eur J Pharm Biopharm. 58(2):265-78. […] The vials were incubated at 37±0.5° C. while shaking on a “Polymax 1040” orbital shaker (Heidolph, Schwabach). The samples of the solutions were taken after 4 or 24 hours by pressing the Uniprep® plunger down, diluted as appropriate, and the concentration of DIM was analyzed by HPLC, as described below. The measurements were done in triplicate. The maximum concentration of DIM in aqueous media used in this study was 0.6 μg/ml. […]

[2] = DIM solubility in excipients (incremental addition, microscopic observation); type: physicochemical; settings: olive oil or sunflower oil
Method: The first step in this development process was the testing of a variety of excipients chosen as potentially active in solubilizing DIM. […] The method involved weighing of approximately 2 grams of each of the liquid excipients into a small vial. Subsequently, a small amount of DIM was added and the mixture was shaken.
The method involved weighing of approximately 2 grams of each of the liquid excipients into a small vial. Subsequently, a small amount of DIM was added and the mixture was shaken. […] Continued testing of acceptable oil solvents for, e.g., nutritional supplement, self-emulsifying formulations using DIM as a representative DIM-related indole active ingredient included testing of the following oils: […]

[3] = Dispersion test in USP dissolution bath (DLS Nicomp, polarized light microscopy); type: physicochemical
Method: A dispersion test was performed on the miscible formulations in a USP dissolution bath. 830 μL of miscible mixture was introduced in 250 mL of purified water at 37° C. under agitation with a paddle at 100 rpm. Performance criteria were: ease of emulsification, homogeneity and fineness of the dispersion. The fineness of the dispersion was assayed by dynamic light scattering (DLS, Particle Sizing Systems Nicomp). Photomicrographs were obtained of crystals observed during light microscopic observation following 30 minutes of dispersion.
The dispersion of the formulation in 250 mL of water (equivalent to the FDA glass of water) was followed for observance of the precipitation of DIM after 30 minutes and was checked by polarized light microscopy. Study of Formulation “D” lead to the formation of a fine and turbid emulsion with a crystal formation showing particle size distribution of 283±66 nm (volume). […] The advantageous reduction in crystal size for Formulation N compared to Formulation D is attributed, at least in part, to a contribution from Peppermint Oil and low concentration of Polysorbate 80 (see FIG. 4, A, B, and C).

[4] = Single dose human oral bioavailability study; type: in vivo; settings: single oral dose 300 mg DIM, healthy individuals, mean
Method: In Part I of the Study, a treatment group was administered a 300 mg dose of DIM from BR-DIM or a 300 mg dose of DIM from crystalline DIM on the first study day, followed by crossover to the other DIM formulation on the second study day, at least 14 days following the first treatment. 3 subjects were given crystalline DIM, 4 subjects were given BR-DIM.
In Part II of the Study, five individuals, four of whom participated in Part I of the Study, were administered a 300 mg dose of DIM from DIM SMEDDS Formulation D. Testing of DIM SMEDDS formula D took place on one day with 5 subjects. The subjects were all healthy, adult volunteers, both male and female, not consuming DIM containing supplements and in a fasting state on study days. […]
The concentrations of DIM in human plasma samples were determined by a validated high-performance liquid chromatography with tandem mass spectrometry (LC-MS/MS) method. […] The analytes were monitored by a Waters Micromass triple quadrupole mass spectrometer (Milford, Mass., USA) using an electrospray probe in the positive ionization mode operating at a cone voltage of 23V for DIM and 13V for the internal standard zileuton. […] The transitions at 129.9>76.8 and 237.1>161.1 were monitored for DIM and zileuton, respectively. […] The lower limit of quantitation (LLOQ) was determined at 10 ng/mL for DIM in human plasma. […]

[5] = source not stated; cited from earlier work

c1ccc2c(Cc3c[nH]c4ccccc34)c[nH]c2c1 [DIM, 3,3′-diindolylmethane]
concentration of DIM in Octanol [1]: 2,300 μg/ml | ability to dissolve DIM [2]: very low

c1ccc2c(Cc3c[nH]c4ccccc34)c[nH]c2c1 [Crystalline DIM, 3,3′-diindolylmethane]
Particle Size Diameter after Dispersion in Water (nm) ([3]; Malvern Mastersizer, DIM as supplied by BioResponse): 3,010^1 nm | DIM Crystal Characteristics In Water Dispersion ([3]; polarized light microscopy after 30 minutes): Large | Cmax [4]: 18.1 ng/mL

CC(C)=CCC/C(C)=C/CC/C(C)=C/CC/C(C)=C/CC1=C(C)C(=O)c2ccccc2C1=O [menaquinone-4]
Log P of 2nd API drug [5]: 10-12

Vitamin D
Log P of 2nd API drug [5]: 7.5
